According to US9512120B2, “Microbicidally active imidazopyridine derivatives” (Syngenta Participations AG, priority 2013, dated 2016):

What was measured:
Plasmopara viticola = Plasmopara viticola / grape / leaf disc preventative; type: in vivo; details: foliar, grape vine leaf disks, inoculated 1 day after application, assessed 6-8 days after application, read-out: control of Plasmopara viticola (percent disease control compared to untreated)
[1] = test system: Phaeosphaeria nodorum (Septoria nodorum); experiment: Phaeosphaeria nodorum (Septoria nodorum) / wheat / leaf disc preventative (glume blotch); type: in vivo; details: Parastagonospora nodorum, foliar, wheat leaf segments cv Kanzler, inoculated 2 days after application, assessed 5-7 days after application, read-out: control of Phaeosphaeria nodorum (percent disease control compared to untreated)
In short: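 Wheat leaf segments (cv Kanzler) on agar sprayed with compound at 200 ppm, inoculated with spores 2 days later. Incubated at 20° C., 75% relative humidity, 12/12 h light/dark; percent disease control versus untreated scored 5-7 days after application.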

[2] = test system: Mycosphaerella graminicola (Septoria tritici); experiment: Mycosphaerella graminicola (Septoria tritici) / liquid culture (Septoria blotch); type: cell-based; details: Zymoseptoria tritici, PDB, 24° C., 4-5 days after application, read-out: control of Mycosphaerella graminicola (inhibition of growth, photometric)
In short: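 Growth inhibition was read photometrically after 4–5 days at 24 °C. The test compound was applied at 200 ppm from DMSO solution, then PDB broth seeded with conidia taken straight from cryogenic storage was added.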

[3] = test system: Puccinia recondita f. sp. Tritici; experiment: Puccinia recondita f. sp. tritici / wheat / leaf disc preventative (brown rust); type: in vivo; details: foliar, wheat leaf segments cv Kanzler, inoculated 1 day after application, assessed 7-9 days after application, read-out: control of Puccinia recondita f. sp. Tritici (percent disease control compared to untreated)
In short: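 Preventative test: percent disease control relative to untreated leaf segments was assessed 7-9 days post-application. Wheat (cv Kanzler) leaf discs were treated at 200 ppm and spore-inoculated 1 day afterwards. Discs were held at 19° C and 75% relative humidity under a 12/12 h light cycle.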

[4] = test system: Botryotinia fuckeliana (Botrytis cinerea); experiment: Botryotinia fuckeliana (Botrytis cinerea) / liquid culture (gray mould); type: cell-based; details: Vogels broth, 24° C., 3-4 days after application, read-out: control of Botryotinia fuckeliana (inhibition of growth, photometric)
In short: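 Test compound was applied at 200 ppm in DMSO, then Vogels nutrient broth containing cryo-stored B. cinerea conidia was added. Photometric growth-inhibition reading followed after 3-4 days at 24 °C.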

[5] = test system: Mycosphaerella arachidis (Cercospora arachidicola); experiment: Mycosphaerella arachidis (Cercospora arachidicola) / liquid culture (early leaf spot); type: cell-based; details: PDB, 24° C., 4-5 days after application, read-out: control of Mycosphaerella arachidis (inhibition of growth, photometric)
Procedure: Mycosphaerella Arachidis (Cercospora arachidicola)/Liquid Culture (Early Leaf Spot): Conidia of the fungus from cryogenic storage were directly mixed into nutrient broth (PDB potato dextrose broth). After placing a DMSO solution of test compound into a 96-well microtiter plate at an application rate of 200 ppm, the nutrient broth containing the fungal spores was added. The test plates are incubated at 24° C. and the inhibition of growth was determined photometrically 4-5 days after application.

Pyrenophora teres = Pyrenophora teres / barley / leaf disc preventative (net blotch); type: in vivo; details: foliar, barley leaf segments cv Hasso, inoculated two days after application, assessed 5-7 days after application, read-out: control of Pyrenophora teres (disease control compared to untreated)
In short: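 Preventative leaf-disc test: 200 ppm spray, then spore inoculation after two days on barley cv Hasso segments. Incubation 20 °C, 65% relative humidity, 12 h light/12 h dark; efficacy rated against untreated checks at 5-7 days post-application.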

[6] = test system: Thanatephorus cucumeris (Rhizoctonia solani); experiment: Thanatephorus cucumeris (Rhizoctonia solani) / liquid culture (foot rot, damping-off); type: cell-based; details: PDB, 24° C., 3-4 days after application, read-out: control of Thanatephorus cucumeris (inhibition of growth, photometric)
In short: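 At 200 ppm, compounds in DMSO were combined with fresh liquid-culture mycelia in PDB and kept at 24° C; photometric measurement of growth inhibition after 3-4 days.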

Sclerotinia sclerotiorum = Sclerotinia sclerotiorum liquid culture (cottony rot / white mold); type: cell-based; details: PDB, 24° C., 3-4 days after application, read-out: control of Sclerotinia sclerotiorum (inhibition of growth, photometric)
In short: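 Mycelia fragments of Sclerotinia sclerotiorum in potato dextrose broth were added to compound in DMSO. Cultures incubated at 24° C; growth inhibition determined photometrically 3-4 days after application.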

Gaeumannomyces graminis = Gaeumannomyces graminis / liquid culture (take-all of cereals); type: cell-based; details: PDB, 24° C., 4-5 days after application, read-out: control of Gaeumannomyces graminis (inhibition of growth, photometric)
In short: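 Growth inhibition, measured by photometry 4-5 days post-application at 24 °C, of fungal mycelial fragments in PDB broth. Test compound applied as DMSO solution at 200 ppm.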

[7] = test system: Monographella nivalis (Microdochium nivale); experiment: Monographella nivalis (Microdochium nivale) / liquid culture (foot rot cereals); type: cell-based; details: PDB, 24° C., 4-5 days after application, read-out: control of Monographella nivalis (inhibition of growth, photometric)
In short: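 Cryostored conidia in potato dextrose broth were added to test compound dispensed from DMSO at 200 ppm. Plates were kept at 24° C, and growth inhibition was read photometrically 4-5 days after application.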

[8] = test system: Glomerella lagenarium (Colletotrichum lagenarium); experiment: Glomerella lagenarium (Colletotrichum lagenarium) / liquid culture (anthracnose); type: cell-based; details: Colletotrichum orbiculare, PDB, 24° C., 3-4 days after application, read-out: control of Glomerella lagenarium (inhibition of growth, photometric)
In short: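 Test compound, delivered in DMSO at an application rate of 200 ppm, was combined with spore-containing PDB. Photometric growth-inhibition measurement followed 3-4 days of incubation at 24° C.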

[9] = test system: Blumeria graminis f. Sp. Tritici (Erysiphe graminis f. Sp. Tritici); experiment: Blumeria graminis f. sp. tritici / wheat / leaf disc preventative (powdery mildew on wheat); type: in vivo; details: foliar, wheat leaf segments cv. Kanzler, inoculated 1 day after application, assessed 6-8 days after application, read-out: control of Blumeria graminis (percent disease control compared to untreated)
Procedure: Blumeria graminis f. Sp. Tritici (Erysiphe graminis f. Sp. Tritici)/Wheat/Leaf Disc Preventative (Powdery Mildew on Wheat):
Wheat leaf segments cv. Kanzler were placed on agar in a 24-well plate and sprayed with the formulated test compound diluted in water at an application rate of 200 ppm. The leaf disks were inoculated by shaking powdery mildew infected plants above the test plates 1 day after application. The inoculated leaf disks were incubated at 20° C. and 60% relative humidity under a light regime of 24 h darkness followed by 12 h/12 h (dark/light) in a climate chamber and the activity of a compound was assessed as percent disease control compared to untreated when an appropriate level of disease damage appears on untreated check leaf segments (6-8 days after application). The following compounds gave at least 80% control of Blumeria graminis at 200 ppm when compared to untreated control leaf disks under the same conditions, which show extensive disease development: 2, 13, 23, 50, 59, 61, 67, 75, 85, 86, 89, 90, 93, 102, 103, 107, 134, 136, 137, 138, 139, 141, 145, 151, 153, 154, 163, 173, 174

Compound | melting point [°C] | pest or weed control at 200 ppm (Plasmopara viticola) [%] | pest or weed control at 200 ppm [1] [%] | inhibition at 20 ppm [2] [%] | pest or weed control at 200 ppm [3] [%] | inhibition at 20 ppm [4] [%] | inhibition at 20 ppm [5] [%] | pest or weed control at 200 ppm (Pyrenophora teres) [%] | inhibition at 20 ppm [6] [%] | inhibition at 20 ppm (Sclerotinia sclerotiorum) [%] | inhibition at 20 ppm (Gaeumannomyces graminis) [%] | inhibition at 20 ppm [7] [%] | inhibition at 20 ppm [8] [%] | pest or weed control at 200 ppm [9] [%]
CCn1c(-n2ncnc2N)nc2cncc(-c3ccc(C)cc3C)c21 [Compound 45, 2-[7-(2,4-dimethylphenyl)-1-ethylimidazo[4,5-c]pyridin-2-yl]-1,2,4-triazol-3-amine] |  | ≥ 80 | ≥ 80 | ≥ 80 | ≥ 80 | ≥ 80 | ≥ 80 | ≥ 80 | ≥ 80 |  |  |  |  | 
CCn1c(-n2ncnc2N)nc2cncc(-c3cccc4c3OC(F)(F)O4)c21 [Compound 48, 2-[7-(2,2-difluoro-1,3-benzodioxol-4-yl)-1-ethylimidazo[4,5-c]pyridin-2-yl]-1,2,4-triazol-3-amine] |  | ≥ 80 | ≥ 80 | ≥ 80 | ≥ 80 | ≥ 80 | ≥ 80 | ≥ 80 | ≥ 80 | ≥ 80 | ≥ 80 | ≥ 80 | ≥ 80 | 
CCn1c(-n2ncnc2N)nc2cncc(-c3cncnc3)c21 [Compound 50, 2-(1-ethyl-7-pyrimidin-5-ylimidazo[4,5-c]pyridin-2-yl)-1,2,4-triazol-3-amine] |  |  |  |  |  |  |  |  |  |  |  |  |  | ≥ 80

Continued, in another order:

melting point [°C] | Compound | pest or weed control at 200 ppm (Plasmopara viticola) [%] | pest or weed control at 200 ppm [1] [%] | inhibition at 20 ppm [2] [%] | pest or weed control at 200 ppm [3] [%] | inhibition at 20 ppm [4] [%] | inhibition at 20 ppm [5] [%] | pest or weed control at 200 ppm (Pyrenophora teres) [%] | inhibition at 20 ppm [6] [%] | inhibition at 20 ppm (Sclerotinia sclerotiorum) [%] | inhibition at 20 ppm (Gaeumannomyces graminis) [%] | inhibition at 20 ppm [7] [%] | inhibition at 20 ppm [8] [%] | pest or weed control at 200 ppm [9] [%]
183 to 186 | CCn1c(-n2ncnc2N)nc2cncc(C3=CCN(C(=O)OC(C)(C)C)CC3)c21 [Compound 107, tert-butyl 4-[2-(5-amino-1,2,4-triazol-1-yl)-1-ethylimidazo[4,5-c]pyridin-7-yl]-3,6-dihydro-2H-pyridine-1-carboxylate] |  |  |  |  |  |  |  |  |  |  |  |  | ≥ 80
201 to 209 | CCn1c(-n2ncnc2N)nc2cncc(C3CC(c4ccccc4)=NO3)c21 (centres unmarked) [Compound 109, 2-[1-ethyl-7-(3-phenyl-4,5-dihydro-1,2-oxazol-5-yl)imidazo[4,5-c]pyridin-2-yl]-1,2,4-triazol-3-amine] | ≥ 80 |  | ≥ 80 | ≥ 80 | ≥ 80 |  | ≥ 80 | ≥ 80 |  | ≥ 80 |  |  | 
160 to 165 | CCON=C(C)c1cncc2nc(-n3ncnc3N)n(CC)c12 [Compound 134] |  |  | ≥ 80 | ≥ 80 | ≥ 80 | ≥ 80 | ≥ 80 | ≥ 80 |  | ≥ 80 | ≥ 80 |  | ≥ 80
